Assay results as given in ChEMBL document CHEMBL6127100, “Plant based steroidal and triterpenoid sapogenins: Chemistry on diosgenin and biological aspects” (Eur J Med Chem, 2024).

Experiments:
Type in all cases: functional, cell-based
[1] = tested on: A549; assay: Antiproliferative activity against human A549 cells assessed as reduction in cells assessed as reduction in cell growth incubated for 72 hrs by MTT assay; details: A549, 72 h
[2] = tested on: A-431; assay: Antiproliferative activity against human A-431 cells assessed as reduction in cells assessed as reduction in cell growth incubated for 72 hrs by MTT assay; details: A-431, 72 h
[3] = tested on: NCI-H1975; assay: Antiproliferative activity against human NCI-H1975 cells assessed as reduction in cells assessed as reduction in cell growth incubated for 72 hrs by MTT assay; details: NCI-H1975, 72 h
[4] = tested on: ASPC1; assay: Antiproliferative activity against human ASPC1 cells assessed as reduction in cells assessed as reduction in cell growth incubated for 72 hrs by MTT assay; details: ASPC1, 72 h
[5] = tested on: HepG2; assay: Antiproliferative activity against human HepG2 cells assessed as reduction in cell viability measured for 24 hrs by MTT assay; details: HepG2, 24 h
[6] = tested on: HeLa; assay: Antiproliferative activity against human HeLa cells assessed as reduction in cell viability measured for 24 hrs by MTT assay
[7] = tested on: HCT-116; assay: Antiproliferative activity against human HCT-116 cells assessed as reduction in cells assessed as reduction in cell growth incubated for 72 hrs by MTT assay; details: HCT-116, 72 h

| Compound | IC50 [1] [µM] | IC50 [2] [µM] | IC50 [3] [µM] | IC50 [4] [µM] | IC50 [5] [µM] | IC50 [6] [µM] | IC50 [7] [µM] |
| --- | --- | --- | --- | --- | --- | --- | --- |
| Cc1ccc2c(n1)C(=O)C(Cl)=C(O[C@H]1CC[C@@]3(C)C(=CC[C@H]4[C@@H]5C[C@@H]6O[C@H](CC[C@@H](C)CO[Si](C)(C)C(C)(C)C)[C@@H](C)[C@@H]6[C@@]5(C)CC[C@@H]43)C1)C2=O |  |  |  |  | 3.55 | 9.69 |  |
| C[C@@H]1CC[C@@]2(OC1)O[C@H]1C[C@H]3[C@@H]4CC=C5C[C@@H]([N+](C)(C)CC#N)CC[C@]5(C)[C@H]4CC[C@]3(C)[C@H]1[C@@H]2C |  | 8.25 | 20.6 | 19.3 |  |  | 9.74 |
| C[C@@H]1CC[C@@]2(OC1)O[C@H]1C[C@H]3[C@@H]4CC=C5C[C@@H]([N+](C)(CC6CC6)CC6CC6)CC[C@]5(C)[C@H]4CC[C@]3(C)[C@H]1[C@@H]2C | 2.69 | 4.71 | 5.32 | 4.07 |  |  | 1.12 |
| C[C@@H]1CC[C@@]2(OC1)O[C@H]1C[C@H]3[C@@H]4CC=C5C[C@@H]([N+](C)(C)C)CC[C@]5(C)[C@H]4CC[C@]3(C)[C@H]1[C@@H]2C | 15.2 | 6.38 | 19 | 9.44 |  |  | 9.67 |
| C[C@@H](CO)CC[C@H]1O[C@H]2C[C@H]3[C@@H]4CC=C5C[C@@H](OC6=C(Cl)C(=O)c7ccccc7C6=O)CC[C@]5(C)[C@H]4CC[C@]3(C)[C@H]2[C@@H]1C |  |  |  |  | 3.85 | 3.7 |  |
| Cc1ccc2c(n1)C(=O)C(Cl)=C(O[C@H]1CC[C@@]3(C)C(=CC[C@H]4[C@@H]5C[C@@H]6O[C@H](CC[C@@H](C)CO)[C@@H](C)[C@@H]6[C@@]5(C)CC[C@@H]43)C1)C2=O |  |  |  |  | 5.36 | 15.6 |  |
| C[C@H](CC[C@H]1O[C@H]2C[C@H]3[C@@H]4CC=C5C[C@@H](OC6=C(Cl)C(=O)c7ccccc7C6=O)CC[C@]5(C)[C@H]4CC[C@]3(C)[C@H]2[C@@H]1C)CO[Si](C)(C)C(C)(C)C |  |  |  |  | 3.52 | 9.69 |  |
| Cc1ccc2c(c1)C(=O)C(Cl)=C(OC[C@H](C)CC[C@H]1O[C@H]3C[C@H]4[C@@H]5CC=C6C[C@@H](OC7=C(Cl)C(=O)c8cc(C)ccc8C7=O)CC[C@]6(C)[C@H]5CC[C@]4(C)[C@H]3[C@@H]1C)C2=O |  |  |  |  | 9.18 | 14.5 |  |
| C[C@H](CC[C@H]1O[C@H]2C[C@H]3[C@@H]4CC=C5C[C@@H](OC6=C(Cl)C(=O)c7ccccc7C6=O)CC[C@]5(C)[C@H]4CC[C@]3(C)[C@H]2[C@@H]1C)COC1=C(Cl)C(=O)c2ccccc2C1=O |  |  |  |  | 1.76 | 6.27 |  |
| C[C@@H]1CC[C@@]2(OC1)O[C@H]1C[C@H]3[C@@H]4CC=C5C[C@@H]([N+](C)(CCCCN6C(=O)c7ccccc7C6=O)CCCCN6C(=O)c7ccccc7C6=O)CC[C@]5(C)[C@H]4CC[C@]3(C)[C@H]1[C@@H]2C | 10.7 | 4.33 | 9.17 | 4.78 |  |  | 3.23 |
| C[C@@H](CO)CC[C@H]1O[C@H]2C[C@H]3[C@@H]4CC=C5C[C@@H](OC6=C(Cl)C(=O)c7ncccc7C6=O)CC[C@]5(C)[C@H]4CC[C@]3(C)[C@H]2[C@@H]1C |  |  |  |  |  | 6.36 |  |
| C[C@@H]1CC[C@@]2(OC1)O[C@H]1C[C@H]3[C@@H]4CC=C5C[C@@H](OC(=O)CCCC[N+]67CCC(CC6)C(O)C7)CC[C@]5(C)[C@H]4CC[C@]3(C)[C@H]1[C@@H]2C (some centres not stated) | 4.07 | 4.14 | 1.68 | 4.46 |  |  |  |
| C[C@@H]1CC[C@@]2(OC1)O[C@H]1C[C@H]3[C@@H]4CC=C5C[C@@H](OC(=O)CCCC[N+]6(C)CCOCC6)CC[C@]5(C)[C@H]4CC[C@]3(C)[C@H]1[C@@H]2C | 5.83 | 5.88 | 5.45 | 8.48 |  |  |  |
| C[C@@H]1CC[C@@]2(OC1)O[C@H]1C[C@H]3[C@@H]4CC=C5C[C@@H](OC(=O)CCCC[N+]6(CCO)CCOCC6)CC[C@]5(C)[C@H]4CC[C@]3(C)[C@H]1[C@@H]2C | 12.6 | 6.21 | 3.36 | 11.1 |  |  |  |
| C[C@@H]1CC[C@@]2(OC1)O[C@H]1C[C@H]3[C@@H]4CC=C5C[C@@H]([N+]6(C)CCCC6)CC[C@]5(C)[C@H]4CC[C@]3(C)[C@H]1[C@@H]2C | 10.5 | 10.4 | 11.2 | 5.54 |  |  | 3.94 |
| C[C@@H]1CC[C@@]2(OC1)O[C@H]1C[C@H]3[C@@H]4CC=C5C[C@@H](OC(=O)CCCC[N+]6(CCO)CCCCC6)CC[C@]5(C)[C@H]4CC[C@]3(C)[C@H]1[C@@H]2C | 4.68 | 4.14 | 1.68 | 6.07 |  |  |  |
| C[C@H](CC[C@H]1O[C@H]2C[C@H]3[C@@H]4CC=C5C[C@@H](OC6=C(Cl)C(=O)c7ncccc7C6=O)CC[C@]5(C)[C@H]4CC[C@]3(C)[C@H]2[C@@H]1C)CO[Si](C)(C)C(C)(C)C |  |  |  |  | 12.2 | 12.4 |  |
| C#CC[N+](C)(CC#C)[C@H]1CC[C@@]2(C)C(=CC[C@H]3[C@@H]4C[C@@H]5O[C@]6(CC[C@@H](C)CO6)[C@@H](C)[C@@H]5[C@@]4(C)CC[C@@H]32)C1 | 12.7 | 14.5 | 5.92 | 4.41 |  |  | 4.71 |

Continued, values first:

| IC50 [1] [µM] | IC50 [2] [µM] | IC50 [3] [µM] | IC50 [4] [µM] | IC50 [5] [µM] | IC50 [6] [µM] | IC50 [7] [µM] | Compound |
| --- | --- | --- | --- | --- | --- | --- | --- |
| 1.84 | 2.55 | 0.78 | 1.23 |  |  |  | C=CC[N+](CC=C)(CC=C)CCCCC(=O)O[C@H]1CC[C@@]2(C)C(=CC[C@H]3[C@@H]4C[C@@H]5O[C@]6(CC[C@@H](C)CO6)[C@@H](C)[C@@H]5[C@@]4(C)CC[C@@H]32)C1 |
| 9.86 | < 2.5 | 5.73 | < 5 |  |  | 0.34 | C[C@@H]1CC[C@@]2(OC1)O[C@H]1C[C@H]3[C@@H]4CC=C5C[C@@H]([N+](C)(C/C=C/c6ccccc6)C/C=C/c6ccccc6)CC[C@]5(C)[C@H]4CC[C@]3(C)[C@H]1[C@@H]2C |
| 2.81 | 3.11 | 3.68 | 2.77 |  |  |  | CCCC[N+](C)(C)CCCCC(=O)O[C@H]1CC[C@@]2(C)C(=CC[C@H]3[C@@H]4C[C@@H]5O[C@]6(CC[C@@H](C)CO6)[C@@H](C)[C@@H]5[C@@]4(C)CC[C@@H]32)C1 |
| 2.52 | 3.46 | 3.23 | 6.56 |  |  |  | CC[N+](CC)(CC)CCCCC(=O)O[C@H]1CC[C@@]2(C)C(=CC[C@H]3[C@@H]4C[C@@H]5O[C@]6(CC[C@@H](C)CO6)[C@@H](C)[C@@H]5[C@@]4(C)CC[C@@H]32)C1 |
| 5.35 | 3.26 |  | 17.8 |  |  | 11.5 | C[C@@H]1CC[C@@]2(OC1)O[C@H]1C[C@H]3[C@@H]4CC=C5C[C@@H]([N+](C)(CCO)CCO)CC[C@]5(C)[C@H]4CC[C@]3(C)[C@H]1[C@@H]2C |
| 4.47 | 4.05 | 3.44 | 2.15 |  |  |  | C[C@@H]1CC[C@@]2(OC1)O[C@H]1C[C@H]3[C@@H]4CC=C5C[C@@H](OC(=O)CCCC[N+]6(C)CCCC6)CC[C@]5(C)[C@H]4CC[C@]3(C)[C@H]1[C@@H]2C |
| 6.63 | 3.52 | 4.05 | 4.18 |  |  |  | C[C@@H]1CC[C@@]2(OC1)O[C@H]1C[C@H]3[C@@H]4CC=C5C[C@@H](OC(=O)CCCC[N+](C)(C)c6ccccc6)CC[C@]5(C)[C@H]4CC[C@]3(C)[C@H]1[C@@H]2C |
| 5.3 | 1.85 | 1.51 | 7.12 |  |  |  | C[C@@H]1CC[C@@]2(OC1)O[C@H]1C[C@H]3[C@@H]4CC=C5C[C@@H](OC(=O)CCCC[N+](C)(C)Cc6ccccc6)CC[C@]5(C)[C@H]4CC[C@]3(C)[C@H]1[C@@H]2C |
| 6.64 | 4.01 | 5.96 | 4.06 |  |  | 5 | C=C[N+](C)(C=C)[C@H]1CC[C@@]2(C)C(=CC[C@H]3[C@@H]4C[C@@H]5O[C@]6(CC[C@@H](C)CO6)[C@@H](C)[C@@H]5[C@@]4(C)CC[C@@H]32)C1 |
| 5.83 | 3.03 | 5.08 | 2.83 |  |  |  | C[C@@H]1CC[C@@]2(OC1)O[C@H]1C[C@H]3[C@@H]4CC=C5C[C@@H](OC(=O)CCCC[N+]6(C)CCCCC6)CC[C@]5(C)[C@H]4CC[C@]3(C)[C@H]1[C@@H]2C |
| 2.42 | 3.87 | 6.39 | < 5 |  |  | 1.03 | CCCC[N+](C)(CCCC)[C@H]1CC[C@@]2(C)C(=CC[C@H]3[C@@H]4C[C@@H]5O[C@]6(CC[C@@H](C)CO6)[C@@H](C)[C@@H]5[C@@]4(C)CC[C@@H]32)C1 |
| 6.33 | 2.85 | 5.09 | 55.3 |  |  | > 1 | COCC[N+](C)(CCOC)[C@H]1CC[C@@]2(C)C(=CC[C@H]3[C@@H]4C[C@@H]5O[C@]6(CC[C@@H](C)CO6)[C@@H](C)[C@@H]5[C@@]4(C)CC[C@@H]32)C1 |
